Assay results from patent US7138361B2, “Herbicidal heterocycles” (E. I. du Pont de Nemours and Company, priority 2000, dated 2006).

What was measured:
Type in all cases: in vivo
[1] = tested on: velvetleaf (Abutilon theophrasti); test: Test B postemergence
Summary of the method: (§1)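 Preemergence: seeds planted and treated with test chemicals in non-phytotoxic solvent with surfactant; postemergence on plants 2–18 cm (1- to 4-leaf stage). Kept in greenhouse 13–15 days, then visually rated against controls on a 0 (no effect) to 100 (complete control) scale.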

[2] = tested on: Surinam grass (Brachiaria decumbens); test: Test B postemergence
Summary of the method: as §1

[3] = tested on: lambsquarters (Chenopodium album); test: Test B postemergence
Summary of the method: as §1

[4] = tested on: giant foxtail (Setaria faberii); test: Test B postemergence
Summary of the method: as §1

[5] = tested on: wild oat (Avena fatua); test: Test B postemergence
Summary of the method: as §1

[6] = tested on: morning glory (Ipomoea hederacea); test: Test B postemergence
Summary of the method: as §1

[7] = tested on: corn (Zea mays); test: Test B postemergence
Summary of the method: as §1

[8] = tested on: barnyardgrass (Echinochloa crus-galli); test: Test B postemergence
Summary of the method: as §1

[9] = tested on: blackgrass (Alopecurus myosuroides); test: Test B postemergence
Summary of the method: as §1

[10] = tested on: cocklebur (Xanthium strumarium); test: Test B postemergence
Summary of the method: as §1

[11] = tested on: crabgrass (Digitaria sanguinalis); test: Test B postemergence
Summary of the method: as §1

[12] = tested on: pigweed (Amaranthus retroflexus); test: Test B postemergence
Summary of the method: as §1

[13] = tested on: wheat (Triticum aestivum); test: Test B postemergence
Summary of the method: as §1

[14] = tested on: Nightshade; test: Test C preemergence; settings: Rate 500 g/ha, visual evaluation after 12 to 14 days
[15] = tested on: velvetleaf (Abutilon theophrasti); test: Test B preemergence
Summary of the method: as §1

[16] = tested on: Surinam grass (Brachiaria decumbens); test: Test B preemergence
Summary of the method: as §1

[17] = tested on: lambsquarters (Chenopodium album); test: Test B preemergence
Summary of the method: as §1

[18] = tested on: giant foxtail (Setaria faberii); test: Test B preemergence
Summary of the method: as §1

[19] = tested on: morning glory (Ipomoea hederacea); test: Test B preemergence
Summary of the method: as §1

[20] = tested on: corn (Zea mays); test: Test B preemergence
Summary of the method: as §1

[21] = tested on: barnyardgrass (Echinochloa crus-galli); test: Test B preemergence
Summary of the method: as §1

[22] = tested on: rice (Oryza saliva); test: Test B preemergence
Summary of the method: as §1

[23] = tested on: cocklebur (Xanthium strumarium); test: Test B preemergence
Summary of the method: as §1

[24] = tested on: crabgrass (Digitaria sanguinalis); test: Test B preemergence
Summary of the method: as §1

[25] = tested on: pigweed (Amaranthus retroflexus); test: Test B preemergence
Summary of the method: as §1

[26] = tested on: Sunflower; test: Test C preemergence; settings: Rate 250 g/ha, scale 0 to 100, 0 no effect, 100 complete control
[27] = Rate 125 g/ha, scale 0 to 100, 0 no effect, 100 complete control
[28] = Rate 500 g/ha, scale 0 to 100, 0 is no effect, 100 is complete control, 13 to 15 days
[29] = Preemergence, Rate 500 g/ha, scale 0 to 100, 0 no effect, 100 complete control
[30] = preemergence, Rate 125 g/ha, scale of 0 to 100 where 0 is no effect and 100 is complete control, 13 to 15 days

CC(C)c1cccc(N2CCC(n3ccc(C(C)(C)C)n3)C2=O)c1 (centres unmarked) [Compound 111]
30: Plant response rating, Crabgrass [11, 28] | Plant response rating, Lambsquarters [17, 30] | Plant response rating, Corn [20, 29]
60: Plant response rating, Wild Oat [5, 28]
100: Plant response rating, Lambsquarters [17, 29] | Plant response rating, Barnyardgrass [21, 29] | Plant response rating, Crabgrass [24, 29] | Plant response rating, Pigweed [25, 29]
0: Plant response rating, Velvetleaf [1, 27] | Plant response rating, Velvetleaf [1, 28] | Plant response rating, Surinam grass [2, 27] | Plant response rating, Lambsquarters [3, 27] | Plant response rating, Foxtail, Giant [4, 27] | Plant response rating, Foxtail, Giant [4, 28] | Plant response rating, Wild Oat [5, 27] | Plant response rating, Morningglory [6, 27] | Plant response rating, Morningglory [6, 28] | Plant response rating, Corn [7, 27] | Plant response rating, Corn [7, 28] | Plant response rating, Barnyardgrass [8, 27] | Plant response rating, Barnyardgrass [8, 28] | Plant response rating, Blackgrass [9, 27] | Plant response rating, Cocklebur [10, 27] | Plant response rating, Cocklebur [10, 28] | Plant response rating, Crabgrass [11, 27] | Plant response rating, Pigweed [12, 27] | Plant response rating, Pigweed [12, 28] | Plant response rating (0 to 100), Nightshade [14] | Plant response rating, Velvetleaf [15, 29] | Plant response rating, Velvetleaf [15, 30] | Plant response rating, Surinam grass [16, 29] | Plant response rating, Surinam grass [16, 30] | Plant response rating, Foxtail, Giant [18, 29] | Plant response rating, Foxtail, Giant [18, 30] | Plant response rating, Morningglory [19, 29] | Plant response rating, Morningglory [19, 30] | Plant response rating, Corn [20, 30] | Plant response rating, Barnyardgrass [21, 30] | Plant response rating, Rice [22, 29] | Plant response rating, Rice [22, 30] | Plant response rating, Cocklebur [23, 29] | Plant response rating, Cocklebur [23, 30] | Plant response rating, Pigweed [25, 30] | Plant response rating, Sunflower [26]
40: Plant response rating, Surinam grass [2, 28]
70: Plant response rating, Crabgrass [24, 30]
20: Plant response rating, Lambsquarters [3, 28] | Plant response rating, Blackgrass [9, 28] | Plant response rating, Wheat [13, 27] | Plant response rating, Wheat [13, 28]

CCCC(C)c1ccn(C2CCN(c3ccc(Cl)c(OC)c3)C2=O)n1 (centres unmarked) [Compound 121]
90: Plant response rating, Barnyardgrass [8, 28]
0: Plant response rating, Foxtail, Giant [4, 27] | Plant response rating, Barnyardgrass [8, 27] | Plant response rating, Blackgrass [9, 27] | Plant response rating, Blackgrass [9, 28] | Plant response rating, Surinam grass [16, 30] | Plant response rating, Foxtail, Giant [18, 30] | Plant response rating, Rice [22, 29] | Plant response rating, Rice [22, 30]
70: Plant response rating, Cocklebur [10, 27]
10: Plant response rating, Velvetleaf [15, 30] | Plant response rating, Cocklebur [23, 30] | Plant response rating, Crabgrass [24, 30]
40: Plant response rating, Surinam grass [2, 28] | Plant response rating, Surinam grass [16, 29] | Plant response rating, Barnyardgrass [21, 30]
100: Plant response rating, Cocklebur [10, 28] | Plant response rating (0 to 100), Nightshade [14] | Plant response rating, Lambsquarters [17, 29] | Plant response rating, Lambsquarters [17, 30] | Plant response rating, Foxtail, Giant [18, 29] | Plant response rating, Barnyardgrass [21, 29] | Plant response rating, Crabgrass [24, 29] | Plant response rating, Pigweed [25, 29] | Plant response rating, Pigweed [25, 30]
20: Plant response rating, Corn [7, 27] | Plant response rating, Velvetleaf [15, 29] | Plant response rating, Morningglory [19, 30] | Plant response rating, Corn [20, 30]
30: Plant response rating, Velvetleaf [1, 27] | Plant response rating, Surinam grass [2, 27] | Plant response rating, Wild Oat [5, 27] | Plant response rating, Corn [7, 28] | Plant response rating, Crabgrass [11, 27] | Plant response rating, Morningglory [19, 29] | Plant response rating, Cocklebur [23, 29]
80: Plant response rating, Lambsquarters [3, 27]
50: Plant response rating, Morningglory [6, 27] | Plant response rating, Pigweed [12, 27] | Plant response rating, Wheat [13, 27] | Plant response rating, Corn [20, 29] | Plant response rating, Sunflower [26]
